Test results published in ChEMBL document CHEMBL1221172, “Identification of a specific inhibitor of the histone methyltransferase SU(VAR)3-9” (Nat Chem Biol, 2005).
Activity calls are given as the source filed them. The calls are words filed in the database; no cut-off is given here.

How the values were obtained:
SL-2 [1] = assay: Cytotoxicity against Drosophila melanogaster SL-2 cells seeded at high density assessed as growth retardation for 24 to 48 hrs up to 0.5 uM; assay type: cell-based
SL-2 [2] = assay: Cytotoxicity against Drosophila melanogaster SL-2 cells seeded at low density; assay type: cell-based
[3] = target: T1, Histone-lysine N-methyltransferase Set8 (Drosophila melanogaster, UniProt Q9VFK6); assay: Inhibition of Drosophila melanogaster PRSET2
T1 sequence (Q9VFK6 whole entry): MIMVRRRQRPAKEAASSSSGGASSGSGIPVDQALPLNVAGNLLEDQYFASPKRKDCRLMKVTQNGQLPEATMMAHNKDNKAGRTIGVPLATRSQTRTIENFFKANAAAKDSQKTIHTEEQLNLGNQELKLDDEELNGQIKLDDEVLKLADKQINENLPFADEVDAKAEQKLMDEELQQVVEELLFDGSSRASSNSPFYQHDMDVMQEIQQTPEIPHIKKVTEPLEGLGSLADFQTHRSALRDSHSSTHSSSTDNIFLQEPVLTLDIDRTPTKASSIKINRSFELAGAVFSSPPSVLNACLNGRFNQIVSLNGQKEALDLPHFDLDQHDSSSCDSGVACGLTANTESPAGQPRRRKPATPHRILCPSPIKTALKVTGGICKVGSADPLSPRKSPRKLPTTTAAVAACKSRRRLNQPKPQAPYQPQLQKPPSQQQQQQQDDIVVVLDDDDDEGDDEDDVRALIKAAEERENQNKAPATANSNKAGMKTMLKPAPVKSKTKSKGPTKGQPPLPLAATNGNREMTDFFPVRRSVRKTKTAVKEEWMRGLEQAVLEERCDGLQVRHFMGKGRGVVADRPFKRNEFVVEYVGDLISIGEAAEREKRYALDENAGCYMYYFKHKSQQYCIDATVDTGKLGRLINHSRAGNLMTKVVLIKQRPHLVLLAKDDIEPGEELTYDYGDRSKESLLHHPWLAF

[4] = Inhibition of Drosophila melanogaster SET7/9
[5] = target: Histone-lysine N-methyltransferase E(z) (Drosophila melanogaster, UniProt P42124); assay: Inhibition of Drosophila melanogaster histone-lysine N-methyl-transferase E(z)
[6] = target: T2, Histone-lysine N-methyltransferase EHMT2 (Mus musculus, UniProt Q9Z148); assay: Inhibition of mouse G9a
T2 sequence (Q9Z148 whole entry): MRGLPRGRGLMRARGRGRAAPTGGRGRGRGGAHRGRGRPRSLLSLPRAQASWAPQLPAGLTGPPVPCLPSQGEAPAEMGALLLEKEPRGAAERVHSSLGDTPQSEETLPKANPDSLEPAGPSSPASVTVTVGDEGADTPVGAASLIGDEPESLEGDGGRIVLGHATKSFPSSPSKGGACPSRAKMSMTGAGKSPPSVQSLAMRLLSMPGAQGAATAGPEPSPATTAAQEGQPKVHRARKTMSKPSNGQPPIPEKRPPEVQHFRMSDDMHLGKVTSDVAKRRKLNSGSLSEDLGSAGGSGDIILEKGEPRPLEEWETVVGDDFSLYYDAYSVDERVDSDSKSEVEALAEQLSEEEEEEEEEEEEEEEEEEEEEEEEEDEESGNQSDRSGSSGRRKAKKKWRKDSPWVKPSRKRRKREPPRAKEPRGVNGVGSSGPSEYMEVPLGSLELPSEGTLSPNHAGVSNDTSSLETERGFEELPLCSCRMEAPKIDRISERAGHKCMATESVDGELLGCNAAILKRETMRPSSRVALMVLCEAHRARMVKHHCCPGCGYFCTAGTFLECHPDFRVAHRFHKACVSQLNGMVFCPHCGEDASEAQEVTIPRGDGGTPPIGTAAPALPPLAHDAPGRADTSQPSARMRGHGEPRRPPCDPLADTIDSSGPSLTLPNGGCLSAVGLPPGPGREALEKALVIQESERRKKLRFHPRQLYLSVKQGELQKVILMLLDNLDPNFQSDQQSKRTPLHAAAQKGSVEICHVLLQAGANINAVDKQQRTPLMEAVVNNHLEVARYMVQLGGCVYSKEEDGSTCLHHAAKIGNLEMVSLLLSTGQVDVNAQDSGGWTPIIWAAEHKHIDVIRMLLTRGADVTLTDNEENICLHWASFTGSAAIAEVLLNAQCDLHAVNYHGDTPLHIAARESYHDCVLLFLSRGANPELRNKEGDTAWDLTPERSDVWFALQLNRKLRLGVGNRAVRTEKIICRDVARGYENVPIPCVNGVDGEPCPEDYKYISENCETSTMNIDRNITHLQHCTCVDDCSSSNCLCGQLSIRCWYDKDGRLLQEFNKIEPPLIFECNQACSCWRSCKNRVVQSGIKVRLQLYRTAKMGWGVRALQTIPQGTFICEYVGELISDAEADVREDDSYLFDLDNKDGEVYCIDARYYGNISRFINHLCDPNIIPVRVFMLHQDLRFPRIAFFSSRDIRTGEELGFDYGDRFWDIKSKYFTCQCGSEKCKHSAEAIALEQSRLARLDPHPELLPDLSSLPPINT

[7] = target: T3, Histone-lysine N-methyltransferase, H3 lysine-9 specific dim-5 (Neurospora crassa, UniProt Q8X225); assay: Inhibition of Neurospora crassa DIM5
T3 sequence (Q8X225 whole entry): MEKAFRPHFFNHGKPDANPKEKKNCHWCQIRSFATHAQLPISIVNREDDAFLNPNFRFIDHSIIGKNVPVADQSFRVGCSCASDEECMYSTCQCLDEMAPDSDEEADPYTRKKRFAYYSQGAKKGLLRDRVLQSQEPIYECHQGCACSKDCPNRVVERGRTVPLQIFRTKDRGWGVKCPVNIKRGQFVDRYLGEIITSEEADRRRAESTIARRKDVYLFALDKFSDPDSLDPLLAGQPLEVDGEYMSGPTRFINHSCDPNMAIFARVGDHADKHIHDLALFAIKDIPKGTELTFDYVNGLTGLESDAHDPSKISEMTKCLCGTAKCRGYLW

[8] = Inhibition of human SU(VAR)3-9
[9] = target: Histone-lysine N-methyltransferase Su(var)3-9 (Drosophila melanogaster, UniProt P45975); assay: Inhibition of Drosophila melanogaster SU(VAR)3-9
[10] = target: Histone-lysine N-methyltransferase Su(var)3-9 (Drosophila melanogaster) (UniProt P45975); conditions: SL2, 0.5 uM
Description: Inhibition of SU(VAR)3-9 in Drosophila melanogaster SL2 cells assessed as inhibition of methylation at Lys36 in Histone H3 at 0.5 uM by MALDI-TOF MS

[11] = target: Histone-lysine N-methyltransferase Su(var)3-9 (Drosophila melanogaster) (UniProt P45975); conditions: SL2, 0.5 uM; remark: listed apart in the source
Description: Inhibition of SU(VAR)3-9 in Drosophila melanogaster SL2 cells assessed as inhibition of methylation at Lys27 in Histone H3 at 0.5 uM by MALDI-TOF MS

[12] = target: Histone-lysine N-methyltransferase Su(var)3-9 (Drosophila melanogaster) (UniProt P45975); conditions: SL2, 0.5 uM; remark: listed apart in the source
Description: Inhibition of SU(VAR)3-9 in Drosophila melanogaster SL2 cells assessed as inhibition of methylation at Lys4in Histone H3 at 0.5 uM by Western blot method

[13] = target: Histone-lysine N-methyltransferase Su(var)3-9 (Drosophila melanogaster) (UniProt P45975); conditions: SL2, 0.5 uM; remark: listed apart in the source
Description: Inhibition of SU(VAR)3-9 in Drosophila melanogaster SL2 cells assessed as inhibition of methylation at Lys79in Histone H3 at 0.5 uM by Western blot method

[14] = target: Histone-lysine N-methyltransferase Su(var)3-9 (Drosophila melanogaster) (UniProt P45975); conditions: SL2, 0.5 uM; remark: listed apart in the source
Description: Inhibition of SU(VAR)3-9 in Drosophila melanogaster SL2 cells assessed as inhibition of methylation at Lys36 in Histone H3 at 0.5 uM by Western blot method

[15] = target: Histone-lysine N-methyltransferase Su(var)3-9 (Drosophila melanogaster) (UniProt P45975); conditions: SL2, 0.5 uM; remark: listed apart in the source
Description: Inhibition of SU(VAR)3-9 in Drosophila melanogaster SL2 cells assessed as inhibition of methylation at Lys27 in Histone H3 at 0.5 uM by Western blot method

[16] = target: Histone-lysine N-methyltransferase Su(var)3-9 (Drosophila melanogaster) (UniProt P45975); conditions: SL2, 0.5 uM; remark: listed apart in the source
Description: Inhibition of SU(VAR)3-9 in Drosophila melanogaster SL2 cells assessed as reduction of H3K9me3 at 0.5 uM by immunostaining method

[17] = target: Histone-lysine N-methyltransferase Su(var)3-9 (Drosophila melanogaster) (UniProt P45975); conditions: SL2, 0.1 uM
Description: Inhibition of SU(VAR)3-9 in Drosophila melanogaster SL2 cells assessed as reduction of H3K9me2 at 0.1 uM after 5 days by MALDI-TOF MS seeded at 2.5 million cells/ml density

[18] = target: Histone-lysine N-methyltransferase Su(var)3-9 (Drosophila melanogaster) (UniProt P45975); conditions: SL2, 0.5 uM; remark: listed apart in the source
Description: Inhibition of SU(VAR)3-9 in Drosophila melanogaster SL2 cells assessed as reduction of H3K9me2 at 0.5 uM after 5 days by MALDI-TOF MS seeded at 2.5 million cells/ml density

[19] = target: Histone-lysine N-methyltransferase Su(var)3-9 (Drosophila melanogaster) (UniProt P45975); conditions: SL2, 0.5 uM; remark: listed apart in the source
Description: Inhibition of SU(VAR)3-9 in Drosophila melanogaster SL2 cells assessed as inhibition of methylation at Lys79in Histone H3 at 0.5 uM by MALDI-TOF MS

[20] = target: Histone-lysine N-methyltransferase Su(var)3-9 (Drosophila melanogaster) (UniProt P45975); conditions: SL2, 0.5 uM; remark: listed apart in the source
Description: Inhibition of SU(VAR)3-9 in Drosophila melanogaster SL2 cells assessed as inhibition of methylation at Lys4in Histone H3 at 0.5 uM by MALDI-TOF MS

Chain of Histone-lysine N-methyltransferase Su(var)3-9 (Drosophila melanogaster) (P45975 whole entry): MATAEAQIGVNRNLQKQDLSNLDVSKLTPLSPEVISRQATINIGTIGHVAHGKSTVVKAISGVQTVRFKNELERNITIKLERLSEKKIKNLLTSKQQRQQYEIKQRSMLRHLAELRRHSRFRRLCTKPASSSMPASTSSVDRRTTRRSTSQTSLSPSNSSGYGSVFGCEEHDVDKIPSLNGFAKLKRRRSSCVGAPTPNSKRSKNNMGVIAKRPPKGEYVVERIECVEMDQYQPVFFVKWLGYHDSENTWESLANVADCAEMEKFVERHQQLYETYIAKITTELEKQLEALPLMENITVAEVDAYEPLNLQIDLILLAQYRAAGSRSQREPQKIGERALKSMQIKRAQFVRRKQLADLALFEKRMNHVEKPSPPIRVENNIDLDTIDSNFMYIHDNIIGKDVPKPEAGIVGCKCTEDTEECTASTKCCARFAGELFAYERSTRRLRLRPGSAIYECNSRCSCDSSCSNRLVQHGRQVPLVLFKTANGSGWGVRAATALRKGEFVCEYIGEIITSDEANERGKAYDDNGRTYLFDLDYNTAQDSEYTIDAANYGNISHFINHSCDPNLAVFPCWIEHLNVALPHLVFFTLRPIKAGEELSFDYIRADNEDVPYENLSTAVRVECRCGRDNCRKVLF
Chain of Histone-lysine N-methyltransferase Su(var)3-9 (P45975 whole entry): as above
Chain of Histone-lysine N-methyltransferase E(z) (P42124 whole entry): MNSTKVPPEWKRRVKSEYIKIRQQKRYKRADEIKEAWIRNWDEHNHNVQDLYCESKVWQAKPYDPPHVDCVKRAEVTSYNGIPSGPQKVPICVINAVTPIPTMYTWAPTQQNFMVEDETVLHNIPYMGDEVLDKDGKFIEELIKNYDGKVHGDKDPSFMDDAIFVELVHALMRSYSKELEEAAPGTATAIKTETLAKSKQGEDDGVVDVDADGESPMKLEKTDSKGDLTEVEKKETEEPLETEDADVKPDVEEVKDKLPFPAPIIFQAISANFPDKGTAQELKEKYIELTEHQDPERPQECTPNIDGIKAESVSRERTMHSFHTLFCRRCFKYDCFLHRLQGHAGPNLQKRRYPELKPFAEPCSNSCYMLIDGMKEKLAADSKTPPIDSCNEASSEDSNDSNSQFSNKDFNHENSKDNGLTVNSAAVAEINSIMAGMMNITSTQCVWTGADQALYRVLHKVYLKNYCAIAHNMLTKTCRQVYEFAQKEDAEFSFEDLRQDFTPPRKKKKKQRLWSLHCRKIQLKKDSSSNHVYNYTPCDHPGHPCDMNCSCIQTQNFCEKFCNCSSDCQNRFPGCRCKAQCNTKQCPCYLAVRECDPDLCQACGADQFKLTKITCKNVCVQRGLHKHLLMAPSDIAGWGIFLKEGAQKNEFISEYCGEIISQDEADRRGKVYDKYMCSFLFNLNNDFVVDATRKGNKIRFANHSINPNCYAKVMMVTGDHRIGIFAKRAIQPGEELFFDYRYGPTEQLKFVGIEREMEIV

CN1C(=O)[C@@]23C[C@]4([C@]56C[C@@]78SS[C@@](CO)(C(=O)N7[C@H]5Nc5ccccc56)N(C)C8=O)c5ccccc5N[C@@H]4N2C(=O)[C@]1(CO)SS3 [CHAETOCIN]
Activity (SL-2 [1]): Non-toxic
Activity (SL-2 [2]): Toxic
IC50 [3]: > 180 µM
IC50 [4]: > 180 µM
IC50 [5]: > 90 µM
IC50 [6]: 2.5 µM
IC50 [7]: 3 µM
IC50 [8]: 0.8 µM
IC50 [9]: 0.6 µM
inhibition [10]: inactive
inhibition [11]: inactive
inhibition [12]: inactive
inhibition [13]: inactive
inhibition [14]: inactive
inhibition [15]: inactive
inhibition [16]: Active
inhibition [17]: Active
inhibition [18]: Active
inhibition [19]: inactive
inhibition [20]: inactive
